Molecules are shown by their SMILES.

This is an account of results in patent US5081253A, “Imidazo(4,5-C)pyridines as antiosteoporotic agents” (American Home Products Corporation, priority 1990, dated 1992).

In assay [1] the test system is Rat Limb Bones (PTH induced bone resorption). In words: Bone Resorption Assay: 45Ca Release from Rat Limb Bones (PTH Induced). The class given is cell-based, rat (Sprague-Dawley CD). The conditions noted are these: 10 μg/mL. Here is the method:
The purpose of this assay is to identify compounds that inhibit basal or stimulated bone resorption in culture.
The ability of 2-substituted-imidazo[4,5-c]pyridines to modify the process of bone resorption was evaluated essentially as described by L.G. Raisz, Bone resorption in tissue culture. Factors influencing the response to parathyroid hormone.
Timed pregnant Sprague-Dawley CD® rats (Charles River) are administered 100 μCi ^45 CaCl2 (NEN calcium -45 NEZ-013) in 100 μL of 0.9% saline, subcutaneously, on day 18 of gestation. The rats are sacrificed the following day by CO2 asphyxiation. The fetuses are removed and the right forelimbs excised and placed in a Petri dish containing ice cold explant medium consisting of modified BGJb -Fitton Jackson media (custom formulation, Gibco No. 78-0088) adjusted to pH 7.3 to which 10 mM TES is added. […] Under a dissecting microscope, the bones are gently cleaned of adherent tissue and the cartilaginous ends removed. Incubation and drug treatment. […] The preincubation medium is brought to 37° C. prior to transfer of bones. The preincubation medium consists of the modified BGJb medium (with salts and glucose as above), pH 7.3, containing 29 mM NaHCO3. […] For compounds that require nonaqueous solvents, dilutions are made from the appropriate stock solution with medium. In these instances, basal and bone resorption stimulated controls exposed to an equivalent concentration of the vehicle are included. […] The right ulna and radius from each fetus are used. Both bones are subjected to the same treatment and each treatment group consists of bones from 4 or more fetuses. Treatments are randomly assigned using a preclinical statistics program (PS-ALLOC). After a 48 hour incubation at 37° C. in 5% CO2, the bones are removed from the medium and extracted in 0.5 mL of 0.1N HCl for 1 or more days. Duplicate 150 μL aliquots of the incubation medium and the bone extract are analyzed for ^45 Ca radioactivity in 5 mL of liquid scintillation cocktail.
The percentage of bone ^45 Ca released into the medium is determined as follows: [formula] […]

For assay [2], the system named is Rat Limb Bones (basal bone resorption). The experiment in a line: Basal Bone Resorption Assay: 45Ca Release from Rat Limb Bones. In kind it is cell-based. The conditions noted are these: 10 μg/mL. An excerpt:
The purpose of this assay is to test stimulators and inhibitors of bone resorption in vitro. The release of ^45 Ca from in vitro labeled murine bone explants into the culture media is taken as an index of bone resorption.
Rat pups are labelled […] by injecting pregnant dams (18 days) with 100 μCi of ^45 Ca.
Two days after the initiation of labelling, the dam is anesthetized with halothane and killed by cervical dislocation. The pups are ablated and quickly decapitated. The calvaria (frontal and parietal bones), forelimbs (containing radii and ulnae), and hind limbs (tibiae) are removed and placed in control media in a petri dish. Bones are debrided of soft tissue by a combination of blunt dissection, and gentle rolling on bibulous paper, taking care not to disturb the periosteum. Cartilaginous ends are cut off long bones. Calvaria are cut in half along midline suture. Bones are separated into 3 categories: calvaria halves, Tibiae and ulnae/radii. Groups of eight (per bone group) are randomly placed in 24-well culture plates containing 0.5 mL of control media. Cultures are maintained at 37° C. in a humidified incubator of 95% air: 5% CO2.
These bones are incubated for 24 hours, media is aspirated from the bones and replaced with fresh media containing test substances. Each bone group has a control group of 8 and a dead bone group of 8. The devitalized cultures are obtained by heating the bones in medium at 55° C. for 60 minutes. The bones are incubated at 37° C. for an additional 72 hours. At the end of this period a 100 microliter aliquot of media is removed and placed in a scintillation vial. Ten mL of Aquasol is added, the ^45 Ca is quantified in a scintillation spectrometer. Bones are rinsed in saline, placed in a scintillation vial, hydrolyzed overnight in 0.75 mL 6N HCl at room temperature. The hydrolyzed bone solution is neutralized by the addition of 2.25 mL of 2N NaOH, followed by 10 mL of Aquasol, the ^45 Ca content is determined by scintillation spectrometry.
Analysis: ^45 Ca release into culture medium from the 24-96 hour period is individually compared to ^45 Ca release in control cultures and to devitalized bone via Dunnett's test. […]

The subject of assay [3] is osteopenia induced by denervation of the sciatic nerve in rats. The experiment in a line: Denervation Induced Osteopenia in Rats. In kind it is in vivo, rat (female Sprague Dawley CD). The source says: The purpose of this assay is to evaluate the effect, in rats, of agents on the reduction in bone mass (osteopenia) induced by immobilization resulting from surgical severance (denervation) of the sciatic nerve.
The animals are housed in plastic cages (4 or 5 rats/cage) with food (rat purina 500 chow) and water ad libitum; 14/10 day/night cycle.
After one week of in-house acclimatization, the animals are randomly divided into groups of 6 to 10 rats/group. Each rat is weighed, anesthetized with an intraperitoneal administration of 100 mg/kg ketamine (Bristol Laboratories, Syracuse, N.Y.) and 0.75 mg/kg Acepromazine (Aveco, Ft. Dodge, Iowa). The left hind limb is shaved and denervated by making a lateral incision parallel to the femur and by surgically removing half of a centimeter of the sciatic nerve adjacent to caudofemoralis and adductor brevis muscles. The incision is closed with wound clips. After surgery, the rats are housed in cages with absorbent bedding to minimize additional trauma to the immobilized limb. A 24 hour post-surgery recovery period is allowed before the initiation of the drug treatment.
The concentration of the drug stock is calculated to be delivered in a volume of 0.1 mL/100 gram body weight. The drug solution or a uniform suspension is prepared in 1% Tween 80 in normal saline. The drugs are administered via oral or parenteral routes daily (five times a week) for four weeks.
A sequential triple labeling of mineralized tissue is employed to determine the osseous changes (especially the bone formation) and the mineralization rates. Each animal is administered 90 mg/kg Xylenol orange (Fisher Scientific Company), S.C., 15 mg/kg Calcein (Sigma Chemical Company), S.C. and 15 mg/kg Demeclocycline (Sigma Chemical Company), i.p., approximately 21 days, 10 days and 2 days prior to the termination of the study, respectively.
At the end of the fourth week, each rat is weighed, anesthetized with an intraperitoneal administration of 100 mg/kg ketamine with 0.75 mg/kg Acepromazine and approximately 4 mL of blood collected via cardiac puncture. The anesthetized rats are euthanized by exposure to carbon dioxide. The femora and tibiae from both limbs are dissected free of soft tissue. (i) Femora are ashed at ~1100° C. for 16 hours using a muffle furnace. --(ii) Proximal tibia are fixed, dehydrated and embedded undecalcified in a methyl methacrylate-glycol methacrylate mixture. Longitudinal tissue sections (10 microns) are prepared on a Polycut S microtome (Reichert). Staining is performed on free-floating sections using a modified Goldner's stain, which are then mounted and coverslipped.
Cancellous bone content in the proximal tibia is quantified (as two dimensional bone mineral area [B.Ar]) with an image analysis processing device (software developed by Drexel University).
The areas of the tibia selected for cancellous bone content evaluation are the primary and secondary spongiosa. To select and standardize this area for evaluation, the epiphyseal growth plate-metaphyseal junction is oriented parallel to the abscissa of the digitizing screen. Bone elements 1.7 mm (secondary spongiosa) and 0.2 mm (primary spongiosa) from the growth plate and equidistant from the flanking cortical elements are then quantified as described above. The total area evaluated is 2.30 mm wide and 1.45 mm deep, constituting a 3.34 mm^2 area.
Body weight, femur mass (dried or ashed) and trabecular (cancellous) bone mineral area (B.Ar) are determined.
The difference (both absolute and percent change) in femur mass and bone mineral area between intact (control) and denervated limbs of a treatment group are compared with that for the vehicle group using a one-way analysis of variance with Dunnett's test, or other multiple comparison methods.
The results are reported in Table I and II under the heading In Vivo.

Take `Cc1cc(C)c(C[S+]([O-])c2nc3cnccc3[nH]2)c(C)c1` (stereo not drawn) [Example 19, 2-[[(2,4,6-Trimethylphenyl)methyl]sulfinyl]-1H-imidazo[4,5-c]pyridine]: the “Inhibition of Bone Resorption, PTH Induced” value (“Inhibition … PTH Induced” for short) in assay [1] (Table I) is “Active”. Further, the “Inhibition of Bone Resorption, Basal” value in assay [2] (Table I) was “Active”. For the same molecule, the “Inhibition of Bone Resorption, In Vivo” value in assay [3] (po, 672 h) was “Inactive”.

For the molecule `[O-][S+](Cc1ccc(Br)cc1F)c1nc2cnccc2[nH]1` (stereo not drawn) [Example 21, 2-[[(4-Bromo-2-fluorophenyl)methyl]sulfinyl]-1H-imidazo[4,5-c]pyridine], the “Inhibition … PTH Induced” value in assay [1] (Table I) is recorded as “Active”. Also, in assay [2] (Table I), the “Inhibition of Bone Resorption, Basal” value was “Active”. In addition, in assay [3] (po, 672 h), the “Inhibition of Bone Resorption, In Vivo” value is listed as “Inactive”.

Regarding `[O-][S+](Cc1cccc(OCc2ccccc2)c1)c1nc2cnccc2[nH]1` (stereo not drawn) [Example 23], the “Inhibition … PTH Induced” value in assay [1] (Table I) is listed as “Active”. Also, the “Inhibition of Bone Resorption, Basal” value in assay [2] (Table I) is given as “Active”. Besides, in assay [3] (po, 672 h), the “Inhibition of Bone Resorption, In Vivo” value is recorded as “Inactive”.

With `[O-][S+](Cc1cc2c(cc1Cl)OCO2)c1nc2cnccc2[nH]1` (stereo not drawn) [Example 25], the “Inhibition … PTH Induced” value in assay [1] (Table I) is given as “Active”. Also, the “Inhibition of Bone Resorption, Basal” value in assay [2] (Table I) is reported as “Active”. The “Inhibition of Bone Resorption, In Vivo” value in assay [3] (po, 672 h) was “Inactive”.

On to `COc1ccc(CSc2nc3cnccc3[nH]2)cc1` [Example 26, 2-[[(4-Methoxyphenyl)methyl]thio]-1H-imidazo[4,5-c]pyridine], for which the “Inhibition … PTH Induced” value in assay [1] (Table II) is reported as “Active”. Further, the “Inhibition of Bone Resorption, Basal” value in assay [2] (Table II) is “Inactive”. The “Inhibition of Bone Resorption, In Vivo” value in assay [3] (Table II, 25 mg/kg, p.o.) was “Inactive”.

As to `Fc1ccc(CSc2nc3cnccc3[nH]2)cc1F` [Example 30, 2-[[(3,4-Difluorophenyl)methyl]thio]-1H-imidazo[4,5-c]pyridine], the “Inhibition … PTH Induced” value in assay [1] (Table II) was “Inactive”. Besides, the “Inhibition of Bone Resorption, Basal” value in assay [2] (Table II) is “Inactive”. Besides, the “Inhibition of Bone Resorption, In Vivo” value in assay [3] (Table II, 25 mg/kg, p.o.) was “Inactive”.

For the molecule `[O-][S+](Cc1ccc(F)c(F)c1)c1nc2cnccc2[nH]1` (stereo not drawn) [Example 31, 2-[[(3,4-Difluorophenyl)methyl]sulfinyl]-1H-imidazo[4,5-c]-pyridine-One Tenth Hydrate], in assay [1] (Table I), the “Inhibition … PTH Induced” value was “Active”. In addition, the “Inhibition of Bone Resorption, Basal” value in assay [2] (Table I) is listed as “Active”. Also, the “Inhibition of Bone Resorption, In Vivo” value in assay [3] (po, 672 h) was “Inactive”.

Turning to `Fc1c(F)c(F)c(CSc2nc3cnccc3[nH]2)c(F)c1F` [Example 32, 2-[[(Pentafluorophenyl)methyl]thio]-1H-imidazo[4,5-c]pyridine], the “Inhibition … PTH Induced” value in assay [1] (Table II) is “Inactive”. For the same molecule, the “Inhibition of Bone Resorption, Basal” value in assay [2] (Table II) was “Inactive”. For the same molecule, the “Inhibition of Bone Resorption, In Vivo” value in assay [3] (Table II, 25 mg/kg, p.o.) was “Inactive”.
